The numbers were not newly measured in US9663462B2, “Anti-parasitic methods and compositions utilizing diindolylmethane-related indoles” (BioResponse, L.L.C., priority 2006, dated 2017), which cites them from elsewhere.

Data set [1] deals with Leishmania donovani topoisomerase I (LdTOPILS). The settings on record: read-out: IC50, inhibition of Leishmania donovani topoisomerase I (LdTOPILS).
The conditions of data set [2]: metabolic half life of DIM.
The conditions of data set [3]: once formed from I3C.
The test system of data set [4] is estrogen-dependent and independent breast cancer cells. The note with it: isolated DIM, cell culture.
Data set [5] deals with chemically induced forms of breast cancer. The note with it: orally administered, animals.
Data set [6] has as its system Human Papilloma Virus (HPV) oncogene altered cervical cancer cell lines.
For data set [7], the system named is NFκB signaling pathway. The settings on record: breast cancer cells.
Data set [8] relates to breast cancer cells.
The subject of data set [9] is rainbow trout. The note with it: in vivo.
In data set [10] the test system is Mitogen Activated Protein Kinase (MAPK) cell signaling pathway. The settings on record: cell culture.

As for `c1ccc2c(Cc3c[nH]c4ccccc34)c[nH]c2c1` [DIM, 3,3′-diindolylmethane], in data set [1], the 50% inhibitory concentration (IC50) is 1200 nM. Also, the half-life in data set [2] was 2 to 7 h. Further, in data set [3], the stability in acid result is “stable”. Further, in data set [4], the apoptosis promoting effects result is given as “apoptosis promoting effects”. In addition, the “growth of chemically induced breast cancer” value in data set [5] was “inhibits the growth”. Also, the induction of apoptosis result in data set [6] is listed as “induce apoptosis”. Moreover, the “activation of the NFκB signaling pathway” value in data set [7] is “reduce activation”. The estrogenic activity entry in data set [8] and in data set [9] was “estrogenic” each time. In addition, in data set [10], the “activation of MAPK cell signaling pathway” value is “activate”.

As a reminder, the IC50 is the midpoint of a concentration-inhibition curve. Usually half-life stands for how long it takes for the measured level to halve.
